Measured values as given in patent US20090018111A1, “Novel Antimicrobial Medicament” (priority 2004, published 2009).
Where two headings read alike, the source gives them in different places.

Assays:
Experiment in all cases: Sensitivity test (agar dilution)
P. vulgaris GN7919 = assay type: cell-based, Proteus vulgaris; conditions: Proteus vulgaris
In short: (§1)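 Each strain, cultured overnight at 37° C and adjusted to about 10^6 CFU/ml in BSG, was spotted (about 5 μl) on Mueller Hinton agar with twofold serial drug concentrations. Inhibition defines the MIC.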

P. vurgalis OX-19 = assay type: cell-based, Proteus vulgaris; conditions: Proteus vulgaris
In short: as §1

C. freundii GN346 = assay type: cell-based, Citrobacter freundii; conditions: Citrobacter freundii
In short: as §1

Str. pyogenes Cook = assay type: cell-based, Streptococcus pyogenes; conditions: Streptococcus pyogenes
In short: as §1

E. cloacae GN7471 = assay type: cell-based, Enterobacter cloacae; conditions: Enterobacter cloacae
In short: as §1

S. aureus 209P = assay type: cell-based, Staphylococcus aureus; conditions: for MIC: Staphylococcus aureus, 209P
In short: as §1

[1] = tested on: S. aureus SP-7928 (homo-MRSA); assay type: cell-based, Staphylococcus aureus; conditions: Staphylococcus aureus, MRSA
In short: as §1

[2] = Concomitant (IPM:SM = 1:1), read-out: MIC
[3] = Concomitant (MEPM:SM = 1:1), read-out: MIC
[4] = Concomitant (MEPM:SM = 1:2), read-out: MIC
[5] = Concomitant (MEPM:SM = 1:4), read-out: MIC
[6] = Concomitant drug (MEPM:SM = 2:1), read-out: MIC

Which results are given for C[C@H]1C=C(c2csc(SC3=C(C(=O)O)N4C(=O)[C@H]([C@@H](C)O)[C@H]4[C@H]3C)n2)CN1 [SM, (4R,5S,6S)-6-[(1R)-1-Hydroxyethyl]-4-methyl-3-({4-[(5S)-5-methyl-2,5-dihydro-1H-pyrrol-3-yl]-1,3-thiazol-2-yl}sulfanyl)-7-oxo-1-azabicyclo[3.2.0]hept-2-ene-2-carboxylic acid]?
MIC (P. vulgaris GN7919; GN7919, Concomitant (AZT:SM = 1:1), P. vulgaris GN7919, read-out: MIC concomitant): 0.25 µg/mL; MIC (P. vulgaris GN7919; GN7919, Concomitant (BIPM:SM = 1:1), P. vulgaris GN7919, read-out: MIC concomitant): 0.25 µg/mL; MIC (P. vulgaris GN7919; GN7919, Concomitant (CAZ:SM = 1:1), P. vulgaris GN7919, read-out: MIC concomitant): 0.5 µg/mL; MIC (P. vulgaris GN7919; GN7919, Concomitant (CPFX:SM = 1:1), P. vulgaris GN7919, read-out: MIC concomitant): 0.016 µg/mL; MIC (P. vulgaris GN7919; GN7919, Concomitant (DRPM:SM = 1:1), P. vulgaris GN7919, read-out: MIC concomitant): 0.063 µg/mL; MIC (P. vulgaris GN7919; GN7919, Concomitant (IPM:SM = 1:1), read-out: MIC): 0.5 µg/mL; MIC (P. vulgaris GN7919; GN7919, Concomitant (MEPM:SM = 1:1), read-out: MIC): 0.031 µg/mL; MIC (P. vulgaris GN7919; GN7919, Concomitant (MEPM:SM = 1:2), read-out: MIC): 0.063 µg/mL; MIC (P. vulgaris GN7919; GN7919, Concomitant (MEPM:SM = 1:4), read-out: MIC): 0.125 µg/mL; MIC (P. vulgaris GN7919; GN7919, Concomitant (PAPM:SM = 1:1), P. vulgaris GN7919, read-out: MIC concomitant): 0.5 µg/mL; MIC (P. vulgaris GN7919; GN7919, Concomitant (PIPC:SM = 1:1), P. vulgaris GN7919, read-out: MIC concomitant): 0.5 µg/mL; MIC (P. vulgaris GN7919; GN7919, Concomitant drug (MEPM:SM = 2:1), read-out: MIC): 0.016 µg/mL; MIC (P. vulgaris GN7919; GN7919, alone, read-out: MIC): 1 µg/mL; MIC (P. vulgaris GN7919; GN7919, drug alone, P. vulgaris GN7919, read-out: MIC alone): 1 µg/mL; MIC (P. vurgalis OX-19; OX19, Concomitant (IPM:SM = 1:1)): 0.063 µg/mL; MIC (P. vurgalis OX-19; OX19, Concomitant (MEPM:SM = 1:1)): ≤ 0.016 µg/mL; MIC (P. vurgalis OX-19; OX19, Concomitant (MEPM:SM = 1:2)): ≤ 0.031 µg/mL; MIC (P. vurgalis OX-19; OX19, Concomitant (MEPM:SM = 1:4)): ≤ 0.063 µg/mL; MIC (P. vurgalis OX-19; OX19, Concomitant drug (MEPM:SM = 2:1)): 0.016 µg/mL; MIC (P. vurgalis OX-19; OX19, alone): 0.063 µg/mL; MIC (P. vurgalis OX-19; OX19, read-out: MIC concomitant, Concomitant (AZT:SM = 1:1), P. vurgalis OX-19): 0.004 µg/mL; MIC (P. vurgalis OX-19; OX19, read-out: MIC concomitant, Concomitant (BIPM:SM = 1:1), P. vurgalis OX-19): 0.031 µg/mL; MIC (P. vurgalis OX-19; OX19, read-out: MIC concomitant, Concomitant (CAZ:SM = 1:1), P. vurgalis OX-19): 0.008 µg/mL; MIC (P. vurgalis OX-19; OX19, read-out: MIC concomitant, Concomitant (CPFX:SM = 1:1), P. vurgalis OX-19): 0.008 µg/mL; MIC (P. vurgalis OX-19; OX19, read-out: MIC concomitant, Concomitant (DRPM:SM = 1:1), P. vurgalis OX-19): 0.031 µg/mL; MIC (P. vurgalis OX-19; OX19, read-out: MIC concomitant, Concomitant (PAPM:SM = 1:1), P. vurgalis OX-19): 0.063 µg/mL; MIC (P. vurgalis OX-19; OX19, read-out: MIC concomitant, Concomitant (PIPC:SM = 1:1), P. vurgalis OX-19): ≤ 0.002 µg/mL; MIC (C. freundii GN346; GN346, Concomitant (AZT:SM = 1:1), C. freundii GN346, read-out: MIC concomitant): 8 µg/mL; MIC (C. freundii GN346; GN346, Concomitant (BIPM:SM = 1:1), C. freundii GN346, read-out: MIC concomitant): 0.125 µg/mL; MIC (C. freundii GN346; GN346, Concomitant (CAZ:SM = 1:1), C. freundii GN346, read-out: MIC concomitant): 8 µg/mL; MIC (C. freundii GN346; GN346, Concomitant (CPFX:SM = 1:1), C. freundii GN346, read-out: MIC concomitant): 0.008 µg/mL; MIC (C. freundii GN346; GN346, Concomitant (DRPM:SM = 1:1), C. freundii GN346, read-out: MIC concomitant): 0.063 µg/mL; MIC (C. freundii GN346; GN346, Concomitant (IPM:SM = 1:1), read-out: MIC): 0.25 µg/mL; MIC (C. freundii GN346; GN346, Concomitant (MEPM:SM = 1:1), read-out: MIC): 0.031 µg/mL; MIC (C. freundii GN346; GN346, Concomitant (MEPM:SM = 1:2), read-out: MIC): 0.063 µg/mL; MIC (C. freundii GN346; GN346, Concomitant (MEPM:SM = 1:4), read-out: MIC): 0.125 µg/mL; MIC (C. freundii GN346; GN346, Concomitant (PAPM:SM = 1:1), C. freundii GN346, read-out: MIC concomitant): 0.25 µg/mL; MIC (C. freundii GN346; GN346, Concomitant (PIPC:SM = 1:1), C. freundii GN346, read-out: MIC concomitant): 8 µg/mL; MIC (C. freundii GN346; GN346, Concomitant drug (MEPM:SM = 2:1), read-out: MIC): 0.016 µg/mL; MIC (C. freundii GN346; GN346, alone, read-out: MIC): 8 µg/mL; MIC (C. freundii GN346; GN346, drug alone, C. freundii GN346, read-out: MIC alone): 8 µg/mL; MIC (Str. pyogenes Cook; Concomitant (AZT:SM = 1:1), Str. pyogenes Cook, read-out: MIC concomitant): 0.004 µg/mL; MIC (Str. pyogenes Cook; Concomitant (BIPM:SM = 1:1), Str. pyogenes Cook, read-out: MIC concomitant): 0.004 µg/mL; MIC (Str. pyogenes Cook; Concomitant (CAZ:SM = 1:1), Str. pyogenes Cook, read-out: MIC concomitant): 0.004 µg/mL; MIC (Str. pyogenes Cook; Concomitant (CPFX:SM = 1:1), Str. pyogenes Cook, read-out: MIC concomitant): 0.004 µg/mL; MIC (Str. pyogenes Cook; Concomitant (DRPM:SM = 1:1), Str. pyogenes Cook, read-out: MIC concomitant): ≤ 0.002 µg/mL; MIC (Str. pyogenes Cook; [2]): ≤ 0.002 µg/mL; MIC (Str. pyogenes Cook; [3]): ≤ 0.016 µg/mL; MIC (Str. pyogenes Cook; [4]): ≤ 0.031 µg/mL; MIC (Str. pyogenes Cook; [5]): ≤ 0.063 µg/mL; MIC (Str. pyogenes Cook; Concomitant (PAPM:SM = 1:1), Str. pyogenes Cook, read-out: MIC concomitant): ≤ 0.002 µg/mL; MIC (Str. pyogenes Cook; Concomitant (PIPC:SM = 1:1), Str. pyogenes Cook, read-out: MIC concomitant): ≤ 0.002 µg/mL; MIC (Str. pyogenes Cook; [6]): ≤ 0.008 µg/mL; MIC (Str. pyogenes Cook; alone, read-out: MIC): ≤ 0.008 µg/mL; MIC (Str. pyogenes Cook; drug alone, Str. pyogenes Cook, read-out: MIC alone): 0.004 µg/mL; MIC (E. cloacae GN7471; GN7471, Concomitant (AZT:SM = 1:1), E. cloacae GN7471, read-out: MIC concomitant): 4 µg/mL; MIC (E. cloacae GN7471; GN7471, Concomitant (BIPM:SM = 1:1), E. cloacae GN7471, read-out: MIC concomitant): 0.063 µg/mL; MIC (E. cloacae GN7471; GN7471, Concomitant (CAZ:SM = 1:1), E. cloacae GN7471, read-out: MIC concomitant): 8 µg/mL; MIC (E. cloacae GN7471; GN7471, Concomitant (CPFX:SM = 1:1), E. cloacae GN7471, read-out: MIC concomitant): 0.016 µg/mL; MIC (E. cloacae GN7471; GN7471, Concomitant (DRPM:SM = 1:1), E. cloacae GN7471, read-out: MIC concomitant): 0.031 µg/mL; MIC (E. cloacae GN7471; GN7471, Concomitant (IPM:SM = 1:1), read-out: MIC): 0.125 µg/mL; MIC (E. cloacae GN7471; GN7471, Concomitant (MEPM:SM = 1:1), read-out: MIC): 0.031 µg/mL; MIC (E. cloacae GN7471; GN7471, Concomitant (MEPM:SM = 1:2), read-out: MIC): 0.063 µg/mL; MIC (E. cloacae GN7471; GN7471, Concomitant (MEPM:SM = 1:4), read-out: MIC): 0.125 µg/mL; MIC (E. cloacae GN7471; GN7471, Concomitant (PAPM:SM = 1:1), E. cloacae GN7471, read-out: MIC concomitant): 0.125 µg/mL; MIC (E. cloacae GN7471; GN7471, Concomitant (PIPC:SM = 1:1), E. cloacae GN7471, read-out: MIC concomitant): 8 µg/mL; MIC (E. cloacae GN7471; GN7471, Concomitant drug (MEPM:SM = 2:1), read-out: MIC): 0.016 µg/mL; MIC (E. cloacae GN7471; GN7471, alone, read-out: MIC): 8 µg/mL; MIC (E. cloacae GN7471; GN7471, drug alone, E. cloacae GN7471, read-out: MIC alone): 8 µg/mL; MIC (S. aureus 209P; Concomitant (AZT:SM = 1:1), S. aureus 209P, read-out: MIC concomitant): 0.008 µg/mL; MIC (S. aureus 209P; Concomitant (BIPM:SM = 1:1), S. aureus 209P, read-out: MIC concomitant): 0.008 µg/mL; MIC (S. aureus 209P; Concomitant (CAZ:SM = 1:1), S. aureus 209P, read-out: MIC concomitant): 0.004 µg/mL; MIC (S. aureus 209P; Concomitant (CPFX:SM = 1:1), S. aureus 209P, read-out: MIC concomitant): 0.008 µg/mL; MIC (S. aureus 209P; Concomitant (DRPM:SM = 1:1), S. aureus 209P, read-out: MIC concomitant): 0.004 µg/mL; MIC (S. aureus 209P; [2]): 0.004 µg/mL; MIC (S. aureus 209P; [3]): ≤ 0.016 µg/mL; MIC (S. aureus 209P; [4]): ≤ 0.031 µg/mL; MIC (S. aureus 209P; [5]): ≤ 0.063 µg/mL; MIC (S. aureus 209P; Concomitant (PAPM:SM = 1:1), S. aureus 209P, read-out: MIC concomitant): 0.004 µg/mL; MIC (S. aureus 209P; Concomitant (PIPC:SM = 1:1), S. aureus 209P, read-out: MIC concomitant): 0.004 µg/mL; MIC (S. aureus 209P; [6]): ≤ 0.008 µg/mL; MIC (S. aureus 209P; alone, read-out: MIC): ≤ 0.008 µg/mL; MIC (S. aureus 209P; drug alone, S. aureus 209P, read-out: MIC alone): 0.008 µg/mL; MIC alone (S. aureus 209P; drug alone, S. aureus 209P): 0.004 µg/mL; MIC ([1]; Concomitant (AZT:SM = 1:1), S. aureus SP-7928 (homo-MRSA), read-out: MIC concomitant): 2 µg/mL; MIC ([1]; Concomitant (BIPM:SM = 1:1), S. aureus SP-7928 (homo-MRSA), read-out: MIC concomitant): 2 µg/mL; MIC ([1]; Concomitant (CAZ:SM = 1:1), S. aureus SP-7928 (homo-MRSA), read-out: MIC concomitant): 1 µg/mL; MIC ([1]; Concomitant (CPFX:SM = 1:1), S. aureus SP-7928 (homo-MRSA), read-out: MIC concomitant): 0.25 µg/mL; MIC ([1]; Concomitant (DRPM:SM = 1:1), S. aureus SP-7928 (homo-MRSA), read-out: MIC concomitant): 1 µg/mL; MIC [1, 2]: 2 µg/mL; MIC [1, 3]: 1 µg/mL; MIC [1, 4]: 2 µg/mL
